The NIST ThermoML archive (doi:10.1021/je900550v)

Conditions: 101.33 kPa, Liquid; for speed of sound: Pulse-echo method; for mass density: Vibrating tube method

CCCCC(=O)[O-].C[NH2+]CCO [2-hydroxy-N-methylethanaminium pentanoate]
Conditions	mass density [kg/m3]	speed of sound [m/s]	viscosity [mPa·s]
278.15 K	1029.68	1616.6	–
278.4 K	1029.52	1615.6	–
278.65 K	1029.35	1614.7	–
278.9 K	1029.18	1613.8	–
279.15 K	1029.01	1612.8	–
279.4 K	1028.85	1611.9	–
279.65 K	1028.68	1611	–
279.9 K	1028.51	1610.1	–
280.15 K	1028.35	1609.1	–
280.4 K	1028.18	1608.2	–
280.65 K	1028.01	1607.3	–
280.9 K	1027.85	1606.4	–
281.15 K	1027.68	1605.5	–
281.4 K	1027.51	1604.6	–
281.65 K	1027.34	1603.7	–
281.9 K	1027.18	1602.8	–
282.15 K	1027.01	1601.9	–
282.4 K	1026.84	1601	–
282.65 K	1026.67	1600.1	–
282.9 K	1026.51	1599.2	–
283.15 K	1026.34	1598.3	–
283.4 K	1026.17	1597.5	–
283.65 K	1026.01	1596.6	–
283.9 K	1025.84	1595.7	–
284.15 K	1025.67	1594.8	–
284.4 K	1025.5	1593.9	–
284.65 K	1025.34	1593.1	–
284.9 K	1025.17	1592.2	–
285.15 K	1025	1591.3	–
285.4 K	1024.83	1590.5	–
285.65 K	1024.66	1589.6	–
285.9 K	1024.5	1588.8	–
286.15 K	1024.33	1587.9	–
286.4 K	1024.16	1587.1	–
286.65 K	1023.99	1586.2	–
286.9 K	1023.83	1585.4	–
287.15 K	1023.66	1584.5	–
287.4 K	1023.49	1583.7	–
287.65 K	1023.32	1582.8	–
287.9 K	1023.15	1582	–
288.15 K	1022.99	1581.2	450.93
288.4 K	1022.82	1580.3	–
288.65 K	1022.65	1579.5	–
288.9 K	1022.48	1578.7	–
289.15 K	1022.31	1577.8	–
289.4 K	1022.14	1577	–
289.65 K	1021.97	1576.2	–
289.9 K	1021.81	1575.3	–
290.15 K	1021.64	1574.5	–
290.4 K	1021.47	1573.7	–
290.65 K	1021.3	1572.9	368.78
290.9 K	1021.13	1572	–
291.15 K	1020.96	1571.2	–
291.4 K	1020.79	1570.4	–
291.65 K	1020.62	1569.6	–
291.9 K	1020.45	1568.8	–
292.15 K	1020.28	1568	–
292.4 K	1020.12	1567.2	–
292.65 K	1019.95	1566.3	–
292.9 K	1019.78	1565.5	–
293.15 K	1019.61	1564.7	319.63
293.4 K	1019.44	1563.9	–
293.65 K	1019.27	1563.1	–
293.9 K	1019.1	1562.3	–
294.15 K	1018.93	1561.5	–
294.4 K	1018.76	1560.7	–
294.65 K	1018.59	1559.9	–
294.9 K	1018.42	1559.1	–
295.15 K	1018.25	1558.3	–
295.4 K	1018.08	1557.5	–
295.65 K	1017.91	1556.7	273.03
295.9 K	1017.74	1555.9	–
296.15 K	1017.57	1555.1	–
296.4 K	1017.4	1554.3	–
296.65 K	1017.23	1553.5	–
296.9 K	1017.06	1552.7	–
297.15 K	1016.89	1551.9	–
297.4 K	1016.72	1551.1	–
297.65 K	1016.55	1550.3	–
297.9 K	1016.38	1549.6	–
298.15 K	1016.21	1548.8	234.44
298.4 K	1016.03	1548	–
298.65 K	1015.86	1547.2	–
298.9 K	1015.69	1546.4	–
299.15 K	1015.52	1545.6	–
299.4 K	1015.35	1544.8	–
299.65 K	1015.19	1544	–
299.9 K	1015.02	1543.3	–
300.15 K	1014.85	1542.5	–
300.4 K	1014.69	1541.7	–
300.65 K	1014.52	1540.9	205.32
300.9 K	1014.36	1540.1	–
301.15 K	1014.19	1539.3	–
301.4 K	1014.03	1538.5	–
301.65 K	1013.86	1537.8	–
301.9 K	1013.7	1537	–
302.15 K	1013.53	1536.2	–
302.4 K	1013.36	1535.4	–
302.65 K	1013.2	1534.6	–
302.9 K	1013.03	1533.9	–
303.15 K	1012.86	1533.1	175.84
303.4 K	1012.7	1532.3	–
303.65 K	1012.53	1531.5	–
303.9 K	1012.37	1530.7	–
304.15 K	1012.2	1530	–
304.4 K	1012.03	1529.2	–
304.65 K	1011.87	1528.4	–
304.91 K	1011.7	1527.6	–
305.15 K	1011.53	1526.8	–
305.4 K	1011.37	1526.1	–
305.65 K	1011.19	1525.3	147.42
305.9 K	1011.03	1524.5	–
306.15 K	1010.86	1523.8	–
306.4 K	1010.69	1523	–
306.65 K	1010.52	1522.2	–
306.9 K	1010.36	1521.5	–
307.15 K	1010.19	1520.7	–
307.4 K	1010.02	1519.9	–
307.65 K	1009.85	1519.1	–
307.9 K	1009.68	1518.4	–
